This is an account of results in ChEMBL document CHEMBL1201862, “PubChem BioAssay data set” (2004).

Active and inactive are the calls of the source.

For assay [1], the target named is T1, Sentrin-specific protease 6 (Homo sapiens, UniProt Q9GZR1).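 Also: Luminescence-based dose-response confirmatory assay of SENP6 inhibition, following up an ultra-high-throughput screen.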
T1 sequence (Q9GZR1 whole entry): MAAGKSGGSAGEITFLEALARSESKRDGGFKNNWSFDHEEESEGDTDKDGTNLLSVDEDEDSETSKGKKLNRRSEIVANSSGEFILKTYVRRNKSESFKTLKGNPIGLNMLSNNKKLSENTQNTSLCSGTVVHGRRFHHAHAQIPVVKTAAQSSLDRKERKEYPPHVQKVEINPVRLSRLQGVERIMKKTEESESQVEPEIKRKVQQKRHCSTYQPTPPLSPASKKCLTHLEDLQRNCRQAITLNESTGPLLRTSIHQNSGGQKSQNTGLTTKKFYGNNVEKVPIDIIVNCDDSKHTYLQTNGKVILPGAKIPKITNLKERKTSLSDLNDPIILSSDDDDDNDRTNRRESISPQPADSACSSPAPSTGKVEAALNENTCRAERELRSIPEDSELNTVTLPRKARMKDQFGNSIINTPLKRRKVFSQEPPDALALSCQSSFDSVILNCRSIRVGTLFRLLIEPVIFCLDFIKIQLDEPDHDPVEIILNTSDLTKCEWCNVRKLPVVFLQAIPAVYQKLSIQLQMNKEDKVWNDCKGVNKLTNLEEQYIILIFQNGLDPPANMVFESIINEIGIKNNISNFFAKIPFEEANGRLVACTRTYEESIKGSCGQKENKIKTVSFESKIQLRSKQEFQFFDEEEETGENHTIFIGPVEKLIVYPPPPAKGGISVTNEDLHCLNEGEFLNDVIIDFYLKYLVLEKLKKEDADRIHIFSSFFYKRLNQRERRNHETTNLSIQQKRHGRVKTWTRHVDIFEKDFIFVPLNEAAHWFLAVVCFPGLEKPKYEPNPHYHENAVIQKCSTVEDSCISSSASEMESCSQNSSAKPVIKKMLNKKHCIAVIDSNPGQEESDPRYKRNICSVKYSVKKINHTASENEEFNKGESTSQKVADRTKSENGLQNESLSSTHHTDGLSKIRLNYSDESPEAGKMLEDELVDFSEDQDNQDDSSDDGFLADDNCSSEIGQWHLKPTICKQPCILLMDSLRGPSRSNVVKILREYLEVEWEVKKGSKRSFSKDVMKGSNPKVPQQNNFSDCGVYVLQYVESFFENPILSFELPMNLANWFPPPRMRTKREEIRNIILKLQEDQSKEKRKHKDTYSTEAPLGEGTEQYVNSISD
The class given is functional.

In assay [2] the target is RNA-editing ligase 1, mitochondrial (Trypanosoma brucei brucei, UniProt P86926). Kind of assay: TbREL1 ligase inhibitors, dose response, biochemical, fluorescence, Trypanosoma brucei (AID 1117295). The class given is functional.
Assay [3] addresses Tyrosine-protein kinase Lck (Homo sapiens, UniProt P06239). In kind it is functional.
Assay [4] has as its target Serine/threonine-protein kinase PAK 4 (Homo sapiens, UniProt O96013). The class given is functional.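 Also: value obtained within a kinome profiling panel in which PAK4 was one of the panel members.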
For assay [5], the target named is Casein kinase I isoform delta (Homo sapiens, UniProt P48730). In kind it is functional.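 Also: measured as one member (CSNK1D) of a kinome panel.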
In assay [6] the target is Receptor tyrosine-protein kinase erbB-4 (Homo sapiens, UniProt Q15303). The class given is functional.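 Also: ERBB4 member of a kinome-wide kinase profiling panel.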
A further assay deals with T2, CAAX prenyl protease 2 (Saccharomyces cerevisiae S288c, UniProt Q03530).
T2 sequence (Q03530 whole entry): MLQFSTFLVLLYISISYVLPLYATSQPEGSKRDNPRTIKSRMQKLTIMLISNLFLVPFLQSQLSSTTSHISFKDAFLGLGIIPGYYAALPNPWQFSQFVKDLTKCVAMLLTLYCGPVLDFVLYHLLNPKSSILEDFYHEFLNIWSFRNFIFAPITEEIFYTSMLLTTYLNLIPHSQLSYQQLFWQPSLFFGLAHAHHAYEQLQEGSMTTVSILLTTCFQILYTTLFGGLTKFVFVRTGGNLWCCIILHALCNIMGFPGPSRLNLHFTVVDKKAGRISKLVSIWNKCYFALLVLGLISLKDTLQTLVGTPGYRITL
The class given is biochemical.

Chain of Receptor tyrosine-protein kinase erbB-4 (Q15303 whole entry): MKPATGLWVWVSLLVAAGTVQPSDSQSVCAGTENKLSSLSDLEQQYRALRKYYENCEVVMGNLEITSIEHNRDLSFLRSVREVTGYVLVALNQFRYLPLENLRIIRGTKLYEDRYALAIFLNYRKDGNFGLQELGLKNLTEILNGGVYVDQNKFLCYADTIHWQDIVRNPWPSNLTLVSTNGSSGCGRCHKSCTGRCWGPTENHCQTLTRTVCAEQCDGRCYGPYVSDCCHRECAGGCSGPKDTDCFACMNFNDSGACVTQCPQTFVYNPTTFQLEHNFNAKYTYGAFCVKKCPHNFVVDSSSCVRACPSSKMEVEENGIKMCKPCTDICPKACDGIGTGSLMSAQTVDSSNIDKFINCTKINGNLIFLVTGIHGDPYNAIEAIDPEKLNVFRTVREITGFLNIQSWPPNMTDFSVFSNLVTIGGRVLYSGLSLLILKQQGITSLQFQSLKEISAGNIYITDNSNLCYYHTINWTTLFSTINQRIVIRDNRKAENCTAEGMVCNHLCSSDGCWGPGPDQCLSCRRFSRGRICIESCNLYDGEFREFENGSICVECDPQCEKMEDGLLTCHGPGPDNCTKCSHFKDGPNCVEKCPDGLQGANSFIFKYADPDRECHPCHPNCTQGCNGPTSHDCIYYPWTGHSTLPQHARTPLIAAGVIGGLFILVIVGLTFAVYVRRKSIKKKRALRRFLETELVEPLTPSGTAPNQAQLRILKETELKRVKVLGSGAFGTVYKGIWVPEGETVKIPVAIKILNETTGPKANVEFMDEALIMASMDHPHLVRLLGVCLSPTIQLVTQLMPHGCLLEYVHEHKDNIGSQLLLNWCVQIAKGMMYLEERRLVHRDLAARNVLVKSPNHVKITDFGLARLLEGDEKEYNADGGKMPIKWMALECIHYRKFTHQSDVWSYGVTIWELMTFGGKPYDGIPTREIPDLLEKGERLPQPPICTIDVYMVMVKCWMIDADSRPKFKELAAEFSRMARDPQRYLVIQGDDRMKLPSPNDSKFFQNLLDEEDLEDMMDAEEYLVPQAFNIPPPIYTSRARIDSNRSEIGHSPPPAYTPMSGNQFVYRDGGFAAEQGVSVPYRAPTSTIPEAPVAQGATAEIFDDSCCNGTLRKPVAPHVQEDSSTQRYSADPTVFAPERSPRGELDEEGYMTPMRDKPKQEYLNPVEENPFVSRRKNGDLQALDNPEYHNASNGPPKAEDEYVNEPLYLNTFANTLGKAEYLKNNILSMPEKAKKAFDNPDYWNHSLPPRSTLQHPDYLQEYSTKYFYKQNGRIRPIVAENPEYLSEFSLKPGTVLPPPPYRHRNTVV
Chain of RNA-editing ligase 1, mitochondrial (P86926 whole entry): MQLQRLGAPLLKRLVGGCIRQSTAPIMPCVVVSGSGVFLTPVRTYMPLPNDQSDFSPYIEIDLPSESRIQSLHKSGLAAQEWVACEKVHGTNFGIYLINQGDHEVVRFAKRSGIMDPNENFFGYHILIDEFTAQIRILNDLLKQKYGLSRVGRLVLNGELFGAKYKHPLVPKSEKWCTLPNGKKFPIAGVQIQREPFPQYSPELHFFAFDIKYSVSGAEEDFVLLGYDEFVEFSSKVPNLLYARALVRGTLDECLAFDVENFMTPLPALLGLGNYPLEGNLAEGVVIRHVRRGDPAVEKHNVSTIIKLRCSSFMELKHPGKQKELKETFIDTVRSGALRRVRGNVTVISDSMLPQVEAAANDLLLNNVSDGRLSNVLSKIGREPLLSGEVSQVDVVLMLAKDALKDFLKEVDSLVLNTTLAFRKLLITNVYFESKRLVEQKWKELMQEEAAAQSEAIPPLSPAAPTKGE
Chain of Serine/threonine-protein kinase PAK 4 (O96013 whole entry, canonical isoform): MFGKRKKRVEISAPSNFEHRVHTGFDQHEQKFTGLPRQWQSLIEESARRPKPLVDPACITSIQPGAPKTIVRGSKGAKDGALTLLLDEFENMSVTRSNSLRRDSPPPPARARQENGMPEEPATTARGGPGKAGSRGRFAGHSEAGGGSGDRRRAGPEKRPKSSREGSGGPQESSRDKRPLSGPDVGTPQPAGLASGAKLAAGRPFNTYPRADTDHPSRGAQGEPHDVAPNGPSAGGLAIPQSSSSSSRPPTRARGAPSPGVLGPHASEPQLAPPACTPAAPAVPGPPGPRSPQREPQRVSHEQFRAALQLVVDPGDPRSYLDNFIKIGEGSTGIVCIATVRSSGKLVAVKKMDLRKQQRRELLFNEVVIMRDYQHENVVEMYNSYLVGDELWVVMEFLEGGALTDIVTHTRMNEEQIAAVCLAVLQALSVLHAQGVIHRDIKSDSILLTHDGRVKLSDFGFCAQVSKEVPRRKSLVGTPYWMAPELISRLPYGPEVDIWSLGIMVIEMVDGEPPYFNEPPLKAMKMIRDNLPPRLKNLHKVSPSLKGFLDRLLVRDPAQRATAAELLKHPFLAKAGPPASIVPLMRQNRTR
Chain of Tyrosine-protein kinase Lck (P06239 whole entry): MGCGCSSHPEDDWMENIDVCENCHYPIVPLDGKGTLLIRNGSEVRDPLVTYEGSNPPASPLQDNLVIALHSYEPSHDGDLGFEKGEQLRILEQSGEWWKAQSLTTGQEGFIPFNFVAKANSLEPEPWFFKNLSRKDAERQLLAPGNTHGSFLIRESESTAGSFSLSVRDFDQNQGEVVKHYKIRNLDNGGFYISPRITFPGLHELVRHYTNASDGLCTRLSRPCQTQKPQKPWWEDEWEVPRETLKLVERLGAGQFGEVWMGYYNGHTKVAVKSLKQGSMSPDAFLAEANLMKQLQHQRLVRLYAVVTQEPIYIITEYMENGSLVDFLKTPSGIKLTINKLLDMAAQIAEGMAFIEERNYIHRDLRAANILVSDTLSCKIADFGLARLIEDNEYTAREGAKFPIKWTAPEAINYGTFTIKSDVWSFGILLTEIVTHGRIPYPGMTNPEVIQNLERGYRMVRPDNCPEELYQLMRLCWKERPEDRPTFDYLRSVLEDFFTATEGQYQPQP
Chain of Casein kinase I isoform delta (P48730 whole entry, canonical isoform): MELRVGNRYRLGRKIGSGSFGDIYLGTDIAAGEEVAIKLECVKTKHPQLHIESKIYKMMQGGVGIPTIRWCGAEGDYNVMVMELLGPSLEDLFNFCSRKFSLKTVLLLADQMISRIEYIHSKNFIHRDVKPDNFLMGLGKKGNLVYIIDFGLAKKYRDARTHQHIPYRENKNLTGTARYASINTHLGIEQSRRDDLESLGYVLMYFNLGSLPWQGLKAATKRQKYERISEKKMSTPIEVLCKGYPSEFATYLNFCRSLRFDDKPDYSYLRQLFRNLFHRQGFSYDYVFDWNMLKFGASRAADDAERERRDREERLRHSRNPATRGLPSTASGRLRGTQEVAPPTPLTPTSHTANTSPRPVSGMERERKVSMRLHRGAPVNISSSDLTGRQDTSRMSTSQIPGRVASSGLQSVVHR

In the case of `CCC(C)NC(=O)c1c(N)n(CCCOC)c2nc3ccccc3nc12` (configuration not stated), the figures for the IC50 in assay [1] and in assay [2] were 0.802 µM (active) and 15.1 µM (inactive), respectively.

In the case of `CC(=NNC(=N)N)c1cc(NC(=O)NCCCCCCNC(=O)Nc2cc(C(C)=NNC(=N)N)cc(C(C)=NNC(=N)N)c2)cc(C(C)=NNC(=N)N)c1`, the Ki (commonly the dissociation constant of the complex between target and ligand, obtained from inhibition or displacement) is > 2.51 µM (inactive) in assay [3], 2.51 µM (active) in assay [4], > 7.94 µM (inactive) in assay [5] and > 3.98 µM (inactive) in assay [6].

In the case of `Cc1cc(N)c2cc(NC(=O)/C=C/c3ccccc3Cl)ccc2n1`, at CAAX prenyl protease 2, the AC50 (in general, the concentration giving half of the maximal activity seen) was 6.78 µM (active).
